Key:
[1] = target: T1, hTLR7 (Homo sapiens, UniProt Q9NYK1); test: HEK-Blue hTLR7 SEAP reporter assay; assay type: cell-based; details: 5 μg/mL imiquimod, GBZ 50 μM
T1 construct: expressed in transfected cells; host or cells: HEK-Blue (HEK 293) hTLR7 reporter cells
T1 sequence (Q9NYK1 27-1049): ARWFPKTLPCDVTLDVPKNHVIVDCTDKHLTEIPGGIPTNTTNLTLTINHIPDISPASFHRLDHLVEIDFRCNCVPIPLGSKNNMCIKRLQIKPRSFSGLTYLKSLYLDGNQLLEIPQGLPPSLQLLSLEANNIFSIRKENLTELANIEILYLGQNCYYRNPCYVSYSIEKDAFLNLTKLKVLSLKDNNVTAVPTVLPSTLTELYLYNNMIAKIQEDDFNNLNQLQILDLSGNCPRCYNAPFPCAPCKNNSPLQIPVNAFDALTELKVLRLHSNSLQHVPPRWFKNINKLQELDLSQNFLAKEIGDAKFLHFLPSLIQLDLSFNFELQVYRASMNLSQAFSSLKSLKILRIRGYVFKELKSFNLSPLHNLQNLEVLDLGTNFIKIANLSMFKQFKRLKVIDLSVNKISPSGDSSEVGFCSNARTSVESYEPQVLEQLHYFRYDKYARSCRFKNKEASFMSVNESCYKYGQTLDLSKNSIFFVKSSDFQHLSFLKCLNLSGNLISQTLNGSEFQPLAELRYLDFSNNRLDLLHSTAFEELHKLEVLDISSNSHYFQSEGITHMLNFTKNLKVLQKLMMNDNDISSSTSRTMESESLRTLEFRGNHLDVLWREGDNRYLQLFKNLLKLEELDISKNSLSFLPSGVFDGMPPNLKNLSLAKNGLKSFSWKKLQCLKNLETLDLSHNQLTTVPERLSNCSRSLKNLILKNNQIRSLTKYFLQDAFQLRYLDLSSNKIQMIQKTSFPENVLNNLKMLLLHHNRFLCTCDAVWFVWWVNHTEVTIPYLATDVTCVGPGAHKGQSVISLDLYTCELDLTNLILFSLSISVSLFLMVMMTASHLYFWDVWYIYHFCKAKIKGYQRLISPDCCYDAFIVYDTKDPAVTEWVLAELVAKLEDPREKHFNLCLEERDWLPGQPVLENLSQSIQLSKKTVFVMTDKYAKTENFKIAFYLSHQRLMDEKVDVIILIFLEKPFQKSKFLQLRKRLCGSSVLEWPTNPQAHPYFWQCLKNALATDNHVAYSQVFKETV
Protocol: FIG. 1: Guanabenz inhibits TLR3 and TLR9 activation in mouse Flt3-L DCs and human blood pDCs. A) Sorted bone marrow derived Flt3L-DCs were activated for 6 h with 10 μg/mL poly I:C LMW (TLR3 in DC1) or 1 μM ODN 1585 (TLR9 in pDCs). GBZ was added at 50 μM and inhibited IFN-β and Interleukin-6 (IL-6) production in activated cells. B) hTLR4, hTLR3, hTLR9 and hTLR7 expressed in the reporter HEK-Blue™ cells are inhibited by GBZ. TLR-expressing HEK-Blue™ cells were respectively activated with 100 ng/mL LPS, 10 μg/mL poly I:C LMW, 2.5 μM ODN 2006 or 5 μg/mL imiquimod, respectively. GBZ was added at 50 μM. TLR activity was measured indirectly through SEAP activity as absorbance at 405 nm. […] Protein concentration of IFN-α and TNF-α secreted were measured at the indicated time points or at 16 h. […]
Given the efficiency of GBZ on mouse TLR3 and TLR9, we turned to human TLRs, in order to extend the relevance of our observations. GBZ-mediated inhibition was first evaluated on NF-kB signaling by monitoring secreted alkaline phosphatase (SEAP) reporter levels in HEK-293 cells expressing TLR3, TLR4, TLR7, TLR9 (FIG. 1B). […] The functionality of the TLR9 transduction pathway was next evaluated by using phospho-flow detection of 40S ribosomal protein S6 (rpS6) phosphorylation, a well characterized early signaling event down-stream of TLR activation by LPS or viruses.

[2] = mouse, cited from earlier work

Compound: NC(N)=N/N=C/c1c(Cl)cccc1Cl [GBZ, 2-(2,6-dichlorobenzylidene)-hydrazinecarboximidamide]
- TLR7-dependent activation of the SEAP reporter [1]: inhibited
- spinal cord accumulation ([2]; several hours after single i.p. bolus 2 mg/kg): approximately 7 μM
- plasma half-life ([2]; single i.p. bolus 2 mg/kg): 1.8 h
